Measurements published in US20080051418A1, “Arylalkanoic Acid Derivative” (priority 2004, published 2008).

| melting point | SMILES |
| --- | --- |
| 109.5 to 110.5 °C | COCCOc1cc(Oc2ccc(C(F)(F)F)cn2)ccc1CCCOc1cc(CCC(=O)O)n(C)n1 [Example 154, 3-{3-[3-(2-(2-methoxyethoxy)-4-{[5-(trifluoromethyl)pyridin-2-yl]oxy}phenyl)propoxy]-1-methyl-1H-pyrazol-5-yl}propanoic acid] |
| 116 to 120 °C | CC(C)Oc1cc(CCCOc2cc(CCC(=O)O)n(C)n2)cc(COc2ccc(Cl)cc2Cl)c1 [Example 197, 3-[3-(3-{3-[(2,4-dichlorophenoxy)methyl]-5-isopropoxyphenyl}propoxy)-1-methyl-1H-pyrazol-5-yl]propanoic acid] |
| 129.5 to 130.5 °C | CC(C)Oc1cc(Oc2ccc(C(F)(F)F)cn2)ccc1CCCOc1cc(CCC(=O)O)n(-c2ccccc2)n1 [Example 151, 3-{3-[3-(2-isopropoxy-4-{[5-(trifluoromethyl)pyridin-2-yl]oxy}phenyl)propoxy]-1-phenyl-1H-pyrazol-5-yl}propanoic acid] |
| 114 to 115 °C | COCCOc1ccc(CCCOc2cc(CCC(=O)O)n(C)n2)c(Oc2ncc(C(F)(F)F)cc2Cl)c1 [Example 148, 3-(3-{3-[2-{[3-chloro-5-(trifluoromethyl)pyridin-2-yl]oxy}-4-(2-methoxyethoxy)phenyl]propoxy}-1-methyl-1H-pyrazol-5-yl)propanoic acid] |
| 110 to 111 °C | COCCOc1ccc(CCCOc2cc(CCC(=O)O)n(C)n2)c(OCc2ccc(C(F)(F)F)cc2)c1 [Example 169, 3-{3-[3-(4-(2-methoxyethoxy)-2-{[4-(trifluoromethyl)benzyl]oxy}phenyl)propoxy]-1-methyl-1H-pyrazol-5-yl}propanoic acid] |
| 110 to 111 °C | CCn1nc(OCCCc2ccc(OC(C)C)cc2OCc2ccc(Cl)cc2Cl)cc1CCC(=O)O [Example 163, 3-[3-(3-{2-[(2,4-dichlorobenzyl)oxy]-4-isopropoxyphenyl}propoxy)-1-ethyl-1H-pyrazol-5-yl]propanoic acid] |
| 112 to 113 °C | CCn1nc(OCCCc2ccc(OCCOC)cc2OCc2ccc(C(F)(F)F)cc2)cc1CCC(=O)O [Example 170, 3-{1-ethyl-3-[3-(4-(2-methoxyethoxy)-2-{[4-(trifluoromethyl)benzyl]oxy}phenyl)propoxy]-1H-pyrazol-5-yl}propanoic acid] |
| 88 to 89 °C | CC(C)Oc1ccc(CCCOc2cc(CCC(=O)O)n(C)n2)c(OCc2ccc(C(F)(F)F)cc2)c1 [Example 167, 3-{3-[3-(4-isopropoxy-2-{[4-(trifluoromethyl)benzyl]oxy}phenyl)propoxy]-1-methyl-1H-pyrazol-5-yl}propanoic acid] |
| 75 to 76 °C | CCn1nc(OCCCc2ccc(OC(C)C)cc2OCc2ccc(C(F)(F)F)cc2)cc1CCC(=O)O [Example 168, 3-{1-ethyl-3-[3-(4-isopropoxy-2-{[4-(trifluoromethyl)benzyl]oxy}phenyl)propoxy]-1H-pyrazol-5-yl}propanoic acid] |
| 80 to 82 °C | CC(C)Oc1ccc(CCCOc2cc(CCC(=O)O)n(-c3ccccc3)n2)c(Oc2ccc(C(F)(F)F)cn2)c1 [Example 172, 3-{3-[3-(4-isopropoxy-2-{[5-(trifluoromethyl)pyridin-2-yl]oxy}phenyl)propoxy]-1-phenyl-1H-pyrazol-5-yl}propanoic acid] |
| 133 to 134 °C | CC(C)Cn1nc(OCCCc2ccc(OC(C)C)cc2OCc2ccc(Cl)cc2Cl)cc1CCC(=O)O [Example 162, 3-[3-(3-{2-[(2,4-dichlorobenzyl)oxy]-4-isopropoxyphenyl}propoxy) -1-isobutyl-1H-pyrazol-5-yl]propanoic acid] |

The next lines start with the compound.

| SMILES | melting point |
| --- | --- |
| CC(C)n1nc(COc2ccccc2CC(=O)O)cc1OCc1ccc2ccccc2n1 [Example 55, (2-{[1-isopropyl-5-(quinolin-2-ylmethoxy)-1H-pyrazol-3-yl]methoxy}phenyl)acetic acid] | 116 to 117 °C |
| CCOc1cc(COc2cc(CCC(=O)O)n(-c3ccccc3)n2)cc(COc2ccc(Cl)cc2Cl)c1 [Example 204, 3-[3-({3-[(2,4-dichlorophenoxy)methyl]-5-ethoxybenzyl}oxy)-1-phenyl-1H-pyrazol-5-yl]propanoic acid] | 151.5 to 152 °C |
| CCOc1cc(Cl)ccc1Cn1nc(OC(C)C)cc1CCCOc1c(CC(=O)O)cccc1OC [Example 69, (2-{3-[1-(4-chloro-2-ethoxybenzyl)-3-isopropoxy-1H-pyrazol-5-yl]propoxy}-3-methoxyphenyl)acetic acid] | 98 to 99 °C |
| CCOc1nn(Cc2ccc(Cl)cc2Cl)cc1CCCOc1cc(CCC(=O)O)n(Cc2ccccc2)n1 [Example 182, 3-(1-benzyl-3-{3-[1-(2,4-dichlorobenzyl)-3-ethoxy-1H-pyrazol-4-yl]propoxy}-1H-pyrazol-5-yl)propanoic acid] | 84 to 85 °C |
| CCc1cccc(CC(=O)O)c1OCCCn1cc(C(=O)NCc2ccc(C(F)(F)F)cc2)c(OC(C)C)n1 [Example 186, (3-ethyl-2-{3-[3-isopropoxy-4-({[4-(trifluoromethyl)benzyl]amino}carbonyl)-1H-pyrazol-1-yl]propoxy}phenyl)acetic acid] | 107.5 to 108.5 °C |
| Cc1cccc(CC(=O)O)c1OCCCc1cc(OC(C)C)nn1Cc1ccc(Cl)cc1Cl [Example 24, (2-{3-[1-(2,4-dichlorobenzyl) -3-isopropoxy-1H-pyrazol-5-yl]propoxy}-3-methylphenyl)acetic acid] | 70 to 71 °C |
| CCCOc1cc(COc2c(CC)cccc2CC(=O)O)n(Cc2ccc3ccccc3n2)n1 [Example 7, (3-ethyl-2-{[3-propoxy-1-(quinolin-2-ylmethyl)-1H-pyrazol-5-yl]methoxy}phenyl)acetic acid] | 110 to 111 °C |
| COCCOc1cc(Oc2ccc(C(F)(F)F)cn2)ccc1CCCOc1cc(CCC(=O)O)n(-c2ccccc2)n1 [Example 153, 3-{3-[3-(2-(2-methoxyethoxy)-4-{[5-(trifluoromethyl)pyridin-2-yl]oxy}phenyl)propoxy]-1-phenyl-1H-pyrazol-5-yl}propanoic acid] | 83 to 85 °C |
| CC(C)Oc1cc(CCCOc2cc(CCC(=O)O)n(Cc3ccccc3)n2)n(Cc2ccc(Cl)cc2Cl)n1 [Example 191, 3-(1-benzyl-3-{3-[1-(2,4-dichlorobenzyl) -3-isopropoxy-1H-pyrazol-5-yl]propoxy}-1H-pyrazol-5-yl)propanoic acid] | 123 to 126 °C |
| CC(C)Oc1cc(CCCOc2ncccc2CC(=O)O)n(Cc2ccc(Cl)cc2OC(C)C)n1 [Example 94, (2-{3-[1-(4-chloro-2-isopropoxybenzyl)-3-isopropoxy-1H-pyrazol-5-yl]propoxy}pyridin-3-yl)acetic acid] | 82 to 84 °C |
| CCCOc1cc(CCCOc2c(CC(=O)O)cccc2OC)n(Cc2ccc3ccccc3n2)n1 [Example 11, (3-methoxy-2-{3-[3-propoxy-1-(quinolin-2-ylmethyl)-1H-pyrazol-5-yl]propoxy}phenyl)acetic acid] | 97 to 98 °C |
| COc1cccc(CC(=O)O)c1OCCCc1cc(OC(C)C)nn1Cc1ccc2ccccc2n1 [Example 10, (2-{3-[3-isopropoxy-1-(quinolin-2-ylmethyl)-1H-pyrazol-5-yl]propoxy}-3-methoxyphenyl)acetic acid] | 129 to 130 °C |
| CCCOc1cc(CCCOc2nn(Cc3ccccc3)cc2CC(=O)O)n(Cc2ccc(Cl)cc2Cl)n1 [Example 89, (1-benzyl-3-{3-[1-(2,4-dichlorobenzyl)-3-propoxy-1H-pyrazol-5-yl]propoxy}-1H-pyrazol-4-yl)acetic acid] | 132 to 134 °C |
| CC(C)Cn1nc(OCCCCc2ccc(OC(C)C)cc2Oc2ncc(C(F)(F)F)cc2Cl)cc1CCC(=O)O [Example 157, 3-{3-[4-(2-{[3-chloro-5-(trifluoromethyl)pyridin-2-yl]oxy}-4-isopropoxyphenyl)butoxy]-1-isobutyl-1H-pyrazol-5-yl}propanoic acid] | 122 to 123 °C |
| CCn1cc(CC(=O)O)c(OCCCc2ccc(Cc3ccccn3)cc2OC(C)C)n1 [Example 126, (3-{3-[2-isopropoxy-4-(pyridin-2-ylmethyl)phenyl]propoxy}-1-ethyl-1H-pyrazol-4-yl)acetic acid] | 97 to 98 °C |
| CCCOc1cc(CCCOc2nn(Cc3ccccc3)cc2CC(=O)O)n(Cc2ccc(F)cc2F)n1 [Example 90, (1-benzyl-3-{3-[1-(2,4-difluorobenzyl)-3-propoxy-1H-pyrazol-5-yl]propoxy}-1H-pyrazol-4-yl)acetic acid] | 94 to 95 °C |
| CC(C)c1ncc(CCCOc2nn(Cc3ccccc3)cc2CC(=O)O)c(Oc2ccc(Cl)cc2Cl)n1 [Example 129, (3-{3-[4-(2,4-dichlorophenoxy)-2-isopropylpyrimidin-5-yl]propoxy}-1-benzyl-1H-pyrazol-4-yl)acetic acid] | 98 to 99 °C |
| CCOc1nn(Cc2ccc(Cl)cc2Cl)cc1CCCOc1nn(-c2ccccc2)cc1CCC(=O)O [Example 193, 3-(3-{3-[1-(2,4-dichlorobenzyl)-3-ethoxy-1H-pyrazol-4-yl]propoxy}-1-phenyl-1H-pyrazol-4-yl)propanoic acid] | 114 to 118 °C |
| CC(C)Oc1ccc(CCCOc2nn(Cc3ccccc3)cc2CC(=O)O)c(OCc2ccc(Cl)cc2Cl)c1 [Example 175, [1-benzyl-3-(3-{2-[(2,4-dichlorobenzyl)oxy]-4-isopropoxyphenyl}propoxy)-1H-pyrazol-4-yl]acetic acid] | 103 to 104 °C |
| COc1cccc(CC(=O)O)c1OCc1cc(OCc2ccc3ccccc3n2)n(C(C)C)n1 [Example 9, (2-{[1-isopropyl-5-(quinolin-2-ylmethoxy)-1H-pyrazol-3-yl]methoxy}-3-methoxyphenyl)acetic acid] | 84 to 85 °C |
| CC(C)Oc1ccc(CCCOc2nn(C)cc2CC(=O)O)c(OCc2ccc(Cl)cc2Cl)c1 [Example 174, [3-(3-{2-[(2,4-dichlorobenzyl)oxy]-4-isopropoxyphenyl}propoxy)-1-methyl-1H-pyrazol-4-yl]acetic acid] | 102 to 103 °C |
| CC(C)Oc1ccc(CCCCOc2cc(CCC(=O)O)n(C)n2)c(Oc2ncc(C(F)(F)F)cc2Cl)c1 [Example 155, 3-{3-[4-(2-{[3-chloro-5-(trifluoromethyl)pyridin-2-yl]oxy}-4-isopropoxyphenyl)butoxy]-1-methyl-1H-pyrazol-5-yl}propanoic acid] | 156 to 157 °C |
